Results on five compounds are retold here after patent EP0403366A2, “Cyclomalto-oligosaccharide derivatives and processes for their preparation” (priority 1989, dated 1990).

Broadly, the solubility is how much of the substance goes into solution per volume. Read a low solubility as a poorly soluble substance.

Data set [1] can be described thus: Apparent stability constant of inclusion complexes. The conditions noted are these: in words, complexes with the new derivatives compared with the corresponding cyclomaltoheptaose (CG₇) complexes.
The nature of a further data set: Solubility in water. The conditions noted are these: in words, compared with cyclomaltoheptaose (CG₇).
The next data set can be described thus: physchem. The settings on record: water.
A short description of data set [2]: Solubility of apolar solutes in aqueous cyclomalto-oligosaccharide solutions (inclusion complexes). Type of data set: physicochemical.

≈ marks a conversion by molar mass, not a printed value.

On to `Oc1ccc2ccccc2c1` [2-naphtol], for which the “constantes de stabilité apparente des complexes” value in data set [1] was “ne sont pas notablement modifiées”.
On to `OC[C@H]1O[C@H](SC[C@H]2O[C@@H]3O[C@H]4[C@H](O)[C@@H](O)[C@@H](O[C@H]5[C@H](O)[C@@H](O)[C@@H](O[C@H]6[C@H](O)[C@@H](O)[C@@H](O[C@H]7[C@H](O)[C@@H](O)[C@@H](O[C@H]8[C@H](O)[C@@H](O)[C@@H](O[C@H]9[C@H](O)[C@@H](O)[C@@H](O[C@H]2[C@H](O)[C@H]3O)O[C@@H]9CO)O[C@@H]8CO)O[C@@H]7CO)O[C@@H]6CO)O[C@@H]5CO)O[C@@H]4CO)[C@H](O)[C@@H](O)[C@@H]1O` [Composé 1, 6-S-alpha-D-glucopyranosyl-6-thio-cyclomaltoheptaose], for which, in “Solubility in water”, the “solubilité dans l'eau” value is recorded as “améliorée par rapport à celle du CG₇”. Moreover, in “physchem”, the solubility came out at 430 mg/mL (≈ 327 mM).
As to `OC[C@H]1O[C@@H](SC[C@H]2O[C@@H]3O[C@H]4[C@H](O)[C@@H](O)[C@@H](O[C@H]5[C@H](O)[C@@H](O)[C@@H](O[C@H]6[C@H](O)[C@@H](O)[C@@H](O[C@H]7[C@H](O)[C@@H](O)[C@@H](O[C@H]8[C@H](O)[C@@H](O)[C@@H](O[C@H]9[C@H](O)[C@@H](O)[C@@H](O[C@H]2[C@H](O)[C@H]3O)O[C@@H]9CO)O[C@@H]8CO)O[C@@H]7CO)O[C@@H]6CO)O[C@@H]5CO)O[C@@H]4CO)[C@H](O)[C@@H](O)[C@@H]1O` [Composé 2, 6-S-bêta-D-glucopyranosyl-6-thio-cyclomaltoheptaose], the “solubilité dans l'eau” value in the data set “Solubility in water” is “très améliorée par rapport à celle du cyclomaltoheptaose”. In “physchem”, this compound registered a solubility of 30 mg/mL (≈ 22.8 mM).
Regarding `C[C@]12CCC(=O)C=C1CC[C@@H]1[C@@H]2[C@@H](O)C[C@@]2(C)[C@H]1CC[C@]2(O)C(=O)CO` [Hydrocortisone], the “constantes de stabilité apparente des complexes” value in data set [1] is “ne sont pas notablement modifiées”.
In the case of `Cc1cccc(N(C)C(=S)Oc2ccc3ccccc3c2)c1` [Tolnaftate, O-2-Naphtyl-méthyl-(3-méthylphényl)-carbomothioate], the Solubilité in data set [2] (Solution aqueuse à 1,7.10^-2 mol/l de CG7) is 840 µg/mL; in data set [2] (Solution aqueuse à 3,10^-2mol/l de composé n°1) it was 52 690 µg/ml; in data set [2] (Solution aqueuse à 3,10^-2 mol/l de composé n° 2) it was 37 090 µg/ml. The concentration in solution in the data set “physchem” (solubility) was 0.012 mg/mL (≈ 0.039 mM).
